Source: publication PMC10079954, “Rational design of phase separating peptides based on phase separating protein sequence of p53” (Scientific Reports, 2023)

Experiments:
[1] = test system: p53 monomer (L344P) mutant; assay: Recruitment (enrichment index) of p53 monomer into designed peptide droplets; parameters: species or system human; conditions: (GGGS)3-linker versus GSGS-linker droplets; no salt, pH 7.0
Description: (§1) We prepared p53 tetramer, dimer, and monomer mutants, as described previously[8],[37],[50]. For the p53 tetramer, a thermostable and cysteine-modified human p53 mutant (C124A, C135V, C141V, W146Y, C182S, V203A, R209P, C229Y, H233Y, Y234F, N235K, Y236F, T253V, N268D, C275A, C277A, and K292C) was used[50]. The dimer and monomer mutants of p53 corresponded to L344A and L344P of the tetramer sequence, respectively[8],[37]. These p53 mutants were expressed with a glutathione S-transferase (GST) tag in E. coli and purified after cleavage of the GST tag, as described previously[50],[51]. The oligomeric state of p53 mutants was confirmed using a gel filtration column (Superdex 200; GE Healthcare). p53 mutants were labeled with Atto488 (ATTO-TEC) or Alexa488 (Thermo Fisher) using maleimide chemistry and then purified using a heparin column (GE Healthcare). We prepared Alexa488-labeled FUS-MBP as described previously[37],[39].
(§2) Recruitment evaluations were performed following the method described in our previous studies[37],[41]. Solutions containing 0.9–1.8 mM designed peptides, 0.1 µM Alexa488-labeled p53 mutants or Alexa488, 25 mM HEPES, 0.5 mM EDTA, and 1 mM DTT at pH 7.0 were used. The solutions were then incubated at 22 °C for five minutes. The aforementioned microscope was used with HILO illumination. To prevent photo-bleaching of the fluorescent samples, we used a laser power of 0.15 mW. The images were acquired at 22 °C. Using the ImageJ software, we calculated the EI values of the individual droplets as follows:2 EI=Idroplet/Isolution, where Idroplet and Isolution represent the average fluorescence intensities of the individual droplets and solutions near the droplets with background substitution, respectively.

[2] = Cross-β structure detection with amyloid-sensitive probe Picogreen; format: physicochemical
Description: Differential interference contrast (DIC) microscopy confirmed that these peptides (0.9–1.8 mM) underwent phase separation in 25 mM HEPES and 0.5 mM EDTA at pH 7.0 (Fig. 2B). To prevent the melting of clusters on the coverslip surface, 2-methacryloyloxyethyl phosphorylcholine (MPC) polymer coating was used[36],[37] (Supplementary Fig. S1). Samples were prepared by sonicating a 2 mM peptide solution or diluting the peptide solution from a 10 mM peptide stock after storage under freezing conditions. Four of the designed peptides, except DPp53N-GSGS-DPp53C2, formed μm-sized spherical clusters. Fluorescence microscopy confirmed the high concentration of peptides labeled with the fluorescent dye Alexa488 in the clusters (Fig. 2B). […] Cross-β structure was also supported by the observation of intrinsic fluorescence upon 400–440 nm excitation[40] (Supplementary Fig. S2). Clusters of aromatic W residues in DPp53N-GSGS-DPp53C2 may lead to the formation of solid aggregates, which is consistent with the results of different systems[21],[34].
The DIC and fluorescence modes of an inverted microscope (IX-73; Olympus, Tokyo, Japan) equipped with microscopic objectives (60 × and 10 ×) and a camera (DP74) were used, as described previously. We used the solution containing 0.9–1.8 mM designed peptide, 0.1 μM Alexa488-labeled peptide, 25 mM HEPES, and 0.5 mM EDTA at pH 7.0. To detect the cross-β structure, picogreen was added at 25 µM for DPp53N-GSGS-DPp53C2 or 2.5 µM for others instead of the Alexa488-labeled peptide. […] DIC and fluorescence images were obtained at 20 or 22 °C. For intrinsic fluorescence measurements, the excitation and detection wavelengths were 440–440 nm and larger than 460 nm, respectively.
Fig. S8 Time course of cross-β structure formation of designed peptides in droplets monitored by DIC and fluorescence images. The fluorescence was detected corresponding to the amyloid marker Picogreen at 2.5 µM in a solution containing 0.9 mM designed peptides, 25 mM HEPES, and 0.5 mM EDTA at pH 7.0 and 22 °C.

p53 dimer (L344A) mutant = assay: Recruitment (enrichment index) of p53 dimer into designed peptide droplets; parameters: species or system human; conditions: (GGGS)3-linker versus GSGS-linker droplets; no salt, pH 7.0
Description: as §1
Recruitment evaluations were performed following the method described in our previous studies[37],[41]. […] Using the ImageJ software, we calculated the EI values of the individual droplets as follows:2 EI=Idroplet/Isolution, where Idroplet and Isolution represent the average fluorescence intensities of the individual droplets and solutions near the droplets with background substitution, respectively.

p53 tetramer = assay: Recruitment (enrichment index) of p53 tetramer into designed peptide droplets; parameters: species or system human; conditions: (GGGS)3-linker versus GSGS-linker droplets; no salt, pH 7.0
Description: as §1, §2

Picogreen fluorescence intensity in droplets versus solution ([2]; Picogreen 2.5 µM, 0.9 mM designed peptide, 25 mM HEPES, 0.5 mM EDTA, pH 7.0, 22 °C): higher than that in the solution
Cross-β structure and state of droplets after long-term incubation ([2]; long-term incubation): gel-like assemblies of the droplets
Sequence: RRRVVQRRRRGGGSGGGSGGGSDDDASQEDDD [DPp53N-(GGGS)3-DPp53C1]
Decrease of average EI of p53 monomer mutant compared to the GSGS-linker peptide [1]: 1.2 fold
Increase of average EI of p53 dimer mutant compared to the GSGS-linker peptide (p53 dimer (L344A) mutant): 1.5 fold
Increase of average EI of p53 tetramer compared to the GSGS-linker peptide (p53 tetramer): 1.8 fold
